From the NIST ThermoML archive (doi:10.1016/j.jct.2009.06.016)
± gives the expanded uncertainty stated by the source.

Assays:
[1] = 101 kPa, Liquid, Vibrating tube method
[2] = xn = mol fraction of the nth substance listed; settings: 283.15 K; 101 kPa; Liquid; Vibrating tube method; x2 = 0

CCCOCC(C)O (configuration not stated) [1-propoxy-2-propanol]
mass density ([1]; 283.15 K): 894.462 ± 0.23 kg/m3 | mass density ([1]; 288.15 K): 889.963 ± 0.23 kg/m3 | mass density ([1]; 293.15 K): 885.456 ± 0.23 kg/m3 | mass density ([1]; 298.15 K): 880.837 ± 0.23 kg/m3 | mass density ([1]; 303.15 K): 876.279 ± 0.23 kg/m3

O [water]
mass density ([1]; 283.15 K): 999.699 ± 0.05 kg/m3

O [water] + CCCOCC(C)O
mass density [2]: 999.699 ± 0.05 kg/m3
